Results taken from patent US11089783B2, “2-(het)aryl-substituted fused heterocycle derivatives as pesticides” (Bayer Aktiengesellschaft, priority 2017, dated 2021).

Key:
Format in all cases: in vivo
Myzus persicae [1] = experiment: Myzus persicae oral test; settings: 120 h, after 5 days, read-out: efficacy
In short: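 Compound solution in IPL41 insect medium with sugar was sealed under parafilm, through which a mixed population of green peach aphids fed. Mortality was scored after 5 days as % efficacy, with 100% meaning all aphids killed.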

Nilaparvata lugens = Nilaparvata lugens spray test (NILALU); settings: 4 g/ha, 4 dat
Procedure: (§1) [table] To produce an appropriate active ingredient formulation, 1 part by weight of active ingredient is dissolved with the specified parts by weight of solvent and made up with water containing an emulsifier concentration of 1000 ppm until the desired concentration is attained. To produce further test concentrations, the mixture is diluted with emulsifier-containing water. If addition of ammonium salts or/and penetrants is required, these are each added to the preparation solution in a concentration of 1000 ppm. Rice plants (Oryza sativa) are sprayed with an active ingredient formulation of the desired concentration and then populated with larvae of the brown planthopper (Nilaparvata lugens). After the desired time, the efficacy in % is determined. 100% means that all planthoppers have been killed; 0% means that no planthoppers have been killed.

Musca domestica = Musca domestica test; settings: 100 ppm, adult houseflies, after 2 days
Procedure: Solvent: dimethyl sulfoxide To produce a suitable active ingredient formulation, 10 mg of active ingredient are mixed with 0.5 ml of dimethyl sulfoxide, and the concentrate is diluted with water to the desired concentration. Vessels containing a sponge treated with sugar solution and the active ingredient formulation of the desired concentration are populated with 10 adult houseflies (Musca domestica). After 2 days, the kill in % is determined. 100% means that all of the flies have been killed; 0% means that none of the flies have been killed.

Phaedon cochleariae [2] = experiment: Phaedon cochleariae spray test (PHAECO), Chinese cabbage leaf discs
In short: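 Chinese cabbage (Brassica pekinensis) leaf discs sprayed with compound in water with 1000 ppm emulsifier, then after drying infested with Phaedon cochleariae larvae. Efficacy (% larvae killed) scored after 7 days or the chosen interval.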

Aphis gossypii = Aphis gossypii spray test (APHIGO), cotton plants; settings: 6 dat
In short: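 Cotton plants (Gossypium hirsutum) heavily infested with cotton aphids were sprayed with the active ingredient formulated in emulsifier-containing water (1000 ppm emulsifier), with ammonium salt or penetrant added at 1000 ppm where required. After the set time, percent kill was determined, where 100% means all aphids dead.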

Myzus persicae [3] = experiment: Myzus persicae spray test (MYZUPE), Chinese cabbage leaf discs
In short: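 Leaf discs of Chinese cabbage carrying all stages of green peach aphid were sprayed with compound formulated in solvent and diluted with water containing emulsifier at 1000 ppm. Percent efficacy (100% = all aphids dead) was scored after 5 days or after the desired time.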

Lucilia cuprina = Lucilia cuprina test; settings: 48 h, L1 larvae, after 2 days, read-out: efficacy (kill)
In short: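 About 20 L1 larvae of Lucilia cuprina placed on minced horsemeat containing compound (DMSO stock diluted in water to test concentration). Kill (%) scored after 2 days; 100% = all larvae dead, 0% = none dead.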

Meloidogyne incognita [4] = experiment: Meloidogyne incognita test (MELGIN); settings: 20 ppm, 14 days (14 dat)
In short: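 Sand with lettuce seeds, M. incognita egg/larvae suspension and aqueous dilution of compound concentrate. Nematicidal efficacy scored from gall (root-knot) formation after 14 days or the desired time, as % relative to untreated control (100% = no galls; 0% = as control).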

Nezara viridula = Nezara viridula spray test (NEZARA / NEZAVI); settings: Nezara viridula, 96 h, 4 g/ha, 4 dat, read-out: % efficacy
In short: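 Barley plants infested with Nezara viridula larvae were sprayed with active ingredient in solvent/emulsifier water (1000 ppm emulsifier; ammonium salt or penetrant at 1000 ppm if added). Efficacy scored as % mortality after the set time (100% = all bugs killed).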

Diabrotica balteata = Diabrotica balteata drench test (DIABBA); settings: soil, 192 h, 8 dat, read-out: % efficacy
Procedure: [table] To produce an appropriate active ingredient formulation, 1 part by weight of active ingredient is mixed with the specified amounts of solvent and emulsifier and the concentrate is diluted to the desired concentration with water, it being necessary to take into account the volume of soil into which drenching is effected. It should be ensured that a concentration of 40 ppm of emulsifier in the soil is not exceeded. For production of further test concentrations, the mixture is diluted with water. 5 maize kernels in each case are sown into soil-filled pots (Zea mays) and, the next day, drenched with the active ingredient formulation of the desired concentration. After one day, about 25 L2 larvae of the banded cucumber beetle (Diabrotica balteata) were added. After 8 days, the efficacy in % is determined. 100% means that all 5 plants have germinated and grown; 0% means that no plant has emerged.

Tetranychus urticae = Tetranychus urticae spray test, OP-resistant (TETRUR); settings: Tetranychus urticae, 144 h, TETRUR, 6 dat, read-out: % efficacy
Procedure: [table] To produce a suitable active ingredient formulation, 1 part by weight of active ingredient is dissolved with the specified parts by weight of solvent and made up to the desired concentration with water containing an emulsifier concentration of 1000 ppm. To produce further test concentrations, the formulation is diluted with emulsifier-containing water. Discs of bean leaves (Phaseolus vulgaris) infested with all stages of the greenhouse red spider mite (Tetranychus urticae) are sprayed with an active ingredient formulation of the desired concentration. After 6 days, the efficacy in % is determined. 100% means that all the spider mites have been killed; 0% means that no spider mites have been killed.

Meloidogyne incognita [5] = experiment: Meloidogyne incognita drench test (MELGIN D); settings: soil, 504 h, 21 dat, read-out: % efficacy
Procedure: [table] To produce an appropriate active ingredient formulation, 1 part by weight of active ingredient is mixed with the specified amounts of solvent and emulsifier and the concentrate is diluted to the desired concentration with water, it being necessary to take into account the volume of soil into which drenching is effected. It should be ensured that a concentration of 20 ppm of emulsifier in the soil is not exceeded. For production of further test concentrations, the mixture is diluted with water. Pots filled with soil (loamy sand) are drenched with the active ingredient solution. An egg/larvae suspension of the southern root-knot nematode (Meloidogyne incognita) is added, and lettuce seeds are scattered over the soil surface and covered with quartz sand. The lettuce seeds germinate and the seedlings develop. The root-knots develop on the roots. After the desired time, the nematicidal effect is determined with reference to the root-knot formation in %. 100% means that no root-knots were found; 0% means that the number of root-knots on the treated plants corresponds to that on the untreated control.

Phaedon cochleariae [6] = experiment: Phaedon cochleariae spray test (PHAECO S), cabbage leaves; settings: Phaedon cochleariae, 168 h, 7 dat, read-out: % efficacy
Procedure: as §1, with “Cabbage leaves (Brassica oleracea)” for “Rice plants (Oryza sativa)”, “and” for “and then”, “mustard beetle (Phaedon cochleariae).” for “brown planthopper (Nilaparvata lugens).”, “kill” for “efficacy”, “beetle larvae” for “planthoppers”

Row | SMILES | pest or weed control at 0.8 ppm (Myzus persicae [1]) | % efficacy (Nilaparvata lugens) | efficacy (kill) (Musca domestica) | efficacy (Phaedon cochleariae [2]; 100 g/ha, 7 days (7 dat)) | % efficacy (Phaedon cochleariae [2]; PHAECO, 20 g/ha, 7 dat) | % efficacy (Aphis gossypii; 0.8 ppm) | % efficacy (Aphis gossypii; 4 ppm) | % efficacy (Myzus persicae [3]; MYZUPE, 4 g/ha, 5 dat) | pest or weed control at 100 g/ha (Myzus persicae [3]; Myzus persicae, foliar, 120 h, 100 g/ha, 5 days (5 dat), read-out: efficacy) | pest or weed control at 100 ppm (Lucilia cuprina) | efficacy (nematicidal, gall formation) (Meloidogyne incognita [4]) | Emax at 4 g/ha (Nezara viridula) | Emax at 20 ppm (Diabrotica balteata) | Emax at 20 g/ha (Tetranychus urticae; 20 g/ha) | Emax at 100 g/ha (Tetranychus urticae; 100 g/ha) | Emax at 4 ppm (Aphis gossypii; Aphis gossypii, 144 h, 4 ppm, read-out: % efficacy) | Emax at 1 ppm (Meloidogyne incognita [5]; 1 ppm) | Emax at 2 ppm (Meloidogyne incognita [5]; 2 ppm) | Emax at 4 ppm (Phaedon cochleariae [6]; 4 ppm) | Emax at 20 ppm (Phaedon cochleariae [6]; 20 ppm)
1 | CCS(=O)(=O)c1ccc(C(=O)NC)nc1-c1nc2cc(C(F)(F)C(F)(F)F)nnc2n1C [Example I-01] | 100% | 100% | 100% | 100% | 67% | 70% | 100% | 90% | 90% | 100% | 90% |  |  |  |  |  |  |  |  | 
2 | CCS(=O)(=O)c1ccc(NC(=O)NC)nc1-c1nc2cc(C(F)(F)F)nnc2n1C [reference compound] |  |  |  |  |  |  |  |  |  |  |  | 0% | 0% | 0% | 0% | 25% | 0% | 50% | 0% | 0%
